#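 Cultured in 96-well plates, cells were exposed to test compound for 48 hours across five concentrations. Abbreviation: GI50, concentration required for 50% inhibition of growth.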 Calls of active or inactive are those of the source. No stated cut-off is given here; in the data, active = GI50 up to about 1.1 µM and inactive = higher.
# How the values were obtained:
# Experiment in all cases: inhibition of tumour cell growth, NCI panel, 48 h
# NCI-H226 = tested on: NCI-H226
# OVCAR-4 = tested on: OVCAR-4
# DU-145 = tested on: DU-145
# HOP-92 = tested on: HOP-92
# MOLT-4 = tested on: MOLT-4
# SN12C = tested on: SN12C
# 786-0 = tested on: 786-0
# SK-MEL-2 = tested on: SK-MEL-2
# MCF7 = tested on: MCF7
# COLO 205 = tested on: COLO 205
# K562 = tested on: K562
# A549 = tested on: A549
# M14 = tested on: M14
# MDA-MB-231 = tested on: MDA-MB-231
# RXF 393 = tested on: RXF 393
# HOP-62 = tested on: HOP-62
# U-251 = tested on: U-251
# EKVX = tested on: EKVX
# SNB-19 = tested on: SNB-19
# NCI-H522 = tested on: NCI-H522
SMILES,GI50 (NCI-H226),GI50 (OVCAR-4),GI50 (DU-145),GI50 (HOP-92),GI50 (MOLT-4),GI50 (SN12C),GI50 (786-0),GI50 (SK-MEL-2),GI50 (MCF7),GI50 (COLO 205),GI50 (K562),GI50 (A549),GI50 (M14),GI50 (MDA-MB-231),GI50 (RXF 393),GI50 (HOP-62),GI50 (U-251),GI50 (EKVX),GI50 (SNB-19),GI50 (NCI-H522)
COc1ccc(Cc2coc3ccccc3c2=O)cc1OC,94 µM (inactive),28.4 µM (inactive),> 100 µM (inactive),> 100 µM (inactive),49.3 µM (inactive),> 100 µM (inactive),> 100 µM (inactive),> 100 µM (inactive),46.2 µM (inactive),> 100 µM (inactive),72.6 µM (inactive),> 100 µM (inactive),53.8 µM (inactive),99.1 µM (inactive),52.4 µM (inactive),56.1 µM (inactive),72.1 µM (inactive),40.6 µM (inactive),> 100 µM (inactive),43.5 µM (inactive)
O=C(O)C(O)C(O)C(O)C(O)CO.[Ba+2] (centres undefined),> 100 µM (inactive),> 100 µM (inactive),> 100 µM (inactive),> 100 µM (inactive),> 100 µM (inactive),> 100 µM (inactive),> 100 µM (inactive),> 100 µM (inactive),> 100 µM (inactive),> 100 µM (inactive),> 100 µM (inactive),> 100 µM (inactive),> 100 µM (inactive),> 100 µM (inactive),> 100 µM (inactive),> 100 µM (inactive),> 100 µM (inactive),> 100 µM (inactive),> 100 µM (inactive),> 100 µM (inactive)
CC(C)c1cc(C(F)(F)F)nc(NNc2nc(C(C)C)cc(C(F)(F)F)n2)n1,> 100 µM (inactive),72.6 µM (inactive),> 100 µM (inactive),> 100 µM (inactive),> 100 µM (inactive),> 100 µM (inactive),28.4 µM (inactive),> 100 µM (inactive),> 100 µM (inactive),> 100 µM (inactive),> 100 µM (inactive),94 µM (inactive),67.9 µM (inactive),65.3 µM (inactive),32.4 µM (inactive),13.2 µM (inactive),45.8 µM (inactive),67.5 µM (inactive),41.7 µM (inactive),> 100 µM (inactive)
CSc1nc(O)c(C#N)c(-c2ccccc2)n1,> 100 µM (inactive),> 100 µM (inactive),> 100 µM (inactive),97.5 µM (inactive),> 100 µM (inactive),> 100 µM (inactive),> 100 µM (inactive),> 100 µM (inactive),> 100 µM (inactive),> 100 µM (inactive),> 100 µM (inactive),> 100 µM (inactive),> 100 µM (inactive),> 100 µM (inactive),> 100 µM (inactive),> 100 µM (inactive),> 100 µM (inactive),> 100 µM (inactive),> 100 µM (inactive),53.1 µM (inactive)
C=C=C(CC1CCCCC1=O)S(=O)(=O)c1ccccc1 (centres undefined),> 10 µM (inactive),> 10 µM (inactive),> 7.13 µM (inactive),> 10 µM (inactive),0.0489 µM (active),7.41 µM (inactive),4.2 µM (inactive),> 10 µM (inactive),3.23 µM (inactive),> 10 µM (inactive),1.69 µM (inactive),> 10 µM (inactive),3.12 µM (inactive),> 10 µM (inactive),> 9.62 µM (inactive),> 10 µM (inactive),> 10 µM (inactive),> 10 µM (inactive),> 10 µM (inactive),0.245 µM (active)
COC(=O)c1c(C)ccc2c(O)c3c(cc12)C(=O)c1c2c(cc(O)c1C3=O)C1(C)OC(C)(O2)C(O)C(N(C)C)C1O (centres undefined),2.26 µM (inactive),2.12 µM (inactive),1.43 µM (inactive),1.82 µM (inactive),0.543 µM (active),2.41 µM (inactive),0.767 µM (active),2.24 µM (inactive),1.28 µM (inactive),1.82 µM (inactive),0.942 µM (active),1.28 µM (inactive),1.85 µM (inactive),1.38 µM (inactive),1.22 µM (inactive),1.74 µM (inactive),0.667 µM (active),2.37 µM (inactive),1.35 µM (inactive),1.22 µM (inactive)
COc1cccc(-c2cc(O)c3c(C)cc(C)nc3n2)c1,0.394 µM (active),4.09 µM (inactive),1.21 µM (inactive),2.74 µM (inactive),0.531 µM (active),0.845 µM (active),0.435 µM (active),0.615 µM (active),0.442 µM (active),0.21 µM (active),0.158 µM (active),0.78 µM (active),0.406 µM (active),1.6 µM (inactive),1.29 µM (inactive),1.09 µM (active),0.526 µM (active),3.85 µM (inactive),0.714 µM (active),0.521 µM (active)
CN(NC(=O)/C(=C/c1ccc(O)cc1)NC(=O)c1ccccc1)c1ccnc2cc(Cl)ccc12,12.7 µM (inactive),17 µM (inactive),21.9 µM (inactive),17.3 µM (inactive),16.7 µM (inactive),24.9 µM (inactive),15.9 µM (inactive),22.3 µM (inactive),13.6 µM (inactive),17.5 µM (inactive),6.35 µM (inactive),19.6 µM (inactive),19 µM (inactive),20.7 µM (inactive),14.6 µM (inactive),15.1 µM (inactive),14.8 µM (inactive),18.2 µM (inactive),17.2 µM (inactive),21 µM (inactive)
O=C(NCC1Nc2ccncc2S(=O)(=O)N1)c1ccc(Br)cc1 (centres undefined),> 100 µM (inactive),64.6 µM (inactive),77.6 µM (inactive),34.4 µM (inactive),46.2 µM (inactive),> 100 µM (inactive),> 100 µM (inactive),14.9 µM (inactive),37 µM (inactive),> 100 µM (inactive),33.2 µM (inactive),> 100 µM (inactive),19.3 µM (inactive),20.1 µM (inactive),> 100 µM (inactive),> 100 µM (inactive),30.4 µM (inactive),> 100 µM (inactive),81.3 µM (inactive),28.2 µM (inactive)
C=C1CC(c2ccc(OCCCN3C(=O)c4ccccc4C3=O)cc2)OC1=O (centres undefined),1.46 µM (inactive),2.45 µM (inactive),4.75 µM (inactive),1.36 µM (inactive),1.52 µM (inactive),3.31 µM (inactive),1.95 µM (inactive),1.96 µM (inactive),1.42 µM (inactive),1.91 µM (inactive),1.52 µM (inactive),16 µM (inactive),2.55 µM (inactive),3.95 µM (inactive),1.99 µM (inactive),16.4 µM (inactive),4 µM (inactive),3.9 µM (inactive),7.38 µM (inactive),0.653 µM (active)
CCOC(=O)C(=CNc1ccc(S(N)(=O)=O)cc1)C(=O)OCC,> 100 µM (inactive),> 100 µM (inactive),> 100 µM (inactive),> 100 µM (inactive),> 100 µM (inactive),> 100 µM (inactive),> 100 µM (inactive),> 100 µM (inactive),> 100 µM (inactive),> 100 µM (inactive),> 100 µM (inactive),> 100 µM (inactive),> 100 µM (inactive),> 100 µM (inactive),> 100 µM (inactive),> 100 µM (inactive),> 100 µM (inactive),> 100 µM (inactive),> 100 µM (inactive),> 100 µM (inactive)
Cc1cc(N)ccc1/N=N\c1ccc(S(=O)(=O)CCOS(=O)(=O)O)cc1,3.37 µM (inactive),10.5 µM (inactive),26 µM (inactive),5.02 µM (inactive),0.23 µM (active),0.463 µM (active),0.414 µM (active),0.605 µM (active),0.614 µM (active),2.07 µM (inactive),0.352 µM (active),3.78 µM (inactive),0.513 µM (active),0.215 µM (active),10.8 µM (inactive),6.1 µM (inactive),3.05 µM (inactive),27 µM (inactive),4.72 µM (inactive),0.274 µM (active)
COC(=O)/C=C(\C(=O)OC)c1cc(C)c2cc(C(C)C)ccc(C)c1-2,53.3 µM (inactive),88.3 µM (inactive),60.3 µM (inactive),24.5 µM (inactive),> 100 µM (inactive),53.3 µM (inactive),75.5 µM (inactive),34.8 µM (inactive),24.9 µM (inactive),30.3 µM (inactive),> 100 µM (inactive),28.2 µM (inactive),23.5 µM (inactive),24.7 µM (inactive),41.4 µM (inactive),34.8 µM (inactive),51.1 µM (inactive),71 µM (inactive),> 100 µM (inactive),13.1 µM (inactive)
NS(=O)(=O)c1nnc(NS(=O)(=O)C(F)(F)F)s1,> 100 µM (inactive),> 100 µM (inactive),> 100 µM (inactive),> 100 µM (inactive),> 100 µM (inactive),,> 100 µM (inactive),> 100 µM (inactive),> 100 µM (inactive),> 100 µM (inactive),> 100 µM (inactive),> 100 µM (inactive),> 100 µM (inactive),> 100 µM (inactive),> 100 µM (inactive),> 100 µM (inactive),> 100 µM (inactive),> 100 µM (inactive),> 100 µM (inactive),> 100 µM (inactive)
